Target: T1, Nitric oxide synthase, endothelial (Bos taurus, UniProt P29473)
T1 sequence (P29473 whole entry): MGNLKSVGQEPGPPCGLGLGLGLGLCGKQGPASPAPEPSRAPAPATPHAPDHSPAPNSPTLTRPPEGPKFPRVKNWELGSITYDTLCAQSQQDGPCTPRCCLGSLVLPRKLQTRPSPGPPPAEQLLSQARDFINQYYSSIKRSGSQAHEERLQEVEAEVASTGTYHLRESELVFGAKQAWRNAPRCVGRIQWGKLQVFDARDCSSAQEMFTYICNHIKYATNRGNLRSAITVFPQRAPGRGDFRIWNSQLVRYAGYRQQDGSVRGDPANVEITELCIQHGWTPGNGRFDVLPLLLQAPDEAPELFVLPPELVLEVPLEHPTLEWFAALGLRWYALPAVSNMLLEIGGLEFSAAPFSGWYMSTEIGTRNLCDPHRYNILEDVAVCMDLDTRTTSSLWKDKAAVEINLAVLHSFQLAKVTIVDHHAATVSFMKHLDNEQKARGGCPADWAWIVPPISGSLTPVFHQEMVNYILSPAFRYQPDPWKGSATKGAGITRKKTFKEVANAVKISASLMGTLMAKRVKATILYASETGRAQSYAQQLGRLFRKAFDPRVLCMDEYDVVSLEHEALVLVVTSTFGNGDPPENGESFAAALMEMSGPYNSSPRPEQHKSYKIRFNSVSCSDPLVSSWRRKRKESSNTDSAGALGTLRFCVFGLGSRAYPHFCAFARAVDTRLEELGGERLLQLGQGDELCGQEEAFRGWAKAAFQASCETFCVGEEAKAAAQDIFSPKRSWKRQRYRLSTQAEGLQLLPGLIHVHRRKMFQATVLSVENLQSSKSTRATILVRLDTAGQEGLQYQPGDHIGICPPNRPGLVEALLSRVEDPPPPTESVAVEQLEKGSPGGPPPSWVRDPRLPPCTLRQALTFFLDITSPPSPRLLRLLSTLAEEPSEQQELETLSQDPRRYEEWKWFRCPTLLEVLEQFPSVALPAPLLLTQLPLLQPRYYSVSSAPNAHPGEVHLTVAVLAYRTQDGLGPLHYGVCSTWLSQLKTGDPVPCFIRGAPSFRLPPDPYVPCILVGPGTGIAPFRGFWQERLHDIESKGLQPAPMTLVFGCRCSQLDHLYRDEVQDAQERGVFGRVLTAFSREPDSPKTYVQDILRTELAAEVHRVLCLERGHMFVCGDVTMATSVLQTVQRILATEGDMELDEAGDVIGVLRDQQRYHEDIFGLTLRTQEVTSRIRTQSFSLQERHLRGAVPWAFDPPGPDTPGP
Experiment: Polarization Assay
Conditions: pH 7.5; 25 °C
Description: eNOS was diluted to varying concentrations in buffer containing 50 mM inorganic phosphate, 50 mM KCl, and 5 mM DTT, pH 7.5. A spectrophotometer was used to determine the concentration of the fluorescein-labeled peptide using the extinction coefficient for fluorescein (ε492 nm = 79,000 M^-1). Peptides (100 nM) were added to samples containing varying concentrations of eNOS and incubated for 1 h at room temperature. Samples were then plated on 384-well Grenier Bio-One solid black microplates in triplicate. Polarization was measured with a Tecan Infinite M1000 Pro apparatus in fluorescent polarization mode using 470-nm excitation and 515-nm emission filters.

Substance	Kd
H-TTATVTKYWF-OH [TTATVTKYWF]	23 nM
H-TTFTVTKYWF-OH [TTFTVTKYWF]	42 nM

— BindingDB's records for doi:10.1074/jbc.M113.528695 (St. Paul's Hospital's Centre of Heart and Lung …, 2014)
